We go through 21 compounds from patent publication US4250097A, “Compositions for and a method of preventing diabetic complications” (Syntex (U.S.A.) Inc., priority 1978, dated 1981).

The structures appear in SMILES notation.

One test has as its target T1, Aldose reductase (Oryctolagus cuniculus, UniProt P15122).
T1 construct: Aldose reductase is isolated by homogenizing the lens in 3 volumes of water; from tissue; host or cells: lens of mature New Zealand rabbits
Kind of test: Aldose reductase inhibition, in vitro (loss of absorbance at 340 millimicrons, glyceraldehyde substrate, NADPH). In kind it is biochemical, New Zealand rabbits (lens). The note with it: pH 6.0, 37° C; for inhibition at 100 µM: 1 × 10^-4 molar concentration of xanthone compound; for inhibition at 10 µM: 1 × 10^-5 molar concentration of xanthone compound; for inhibition at 1 µM: 1 × 10^-6 molar concentration of xanthone compound. The procedure:
In brief, a solution of the enzyme is added to an appropriately buffered solution containing glyceraldehyde. The loss of ultra violet absorbance at 340 millimicrons is indicative of the rate of reaction of the aldehyde with the enzyme as previously reported by Hayman and Kinoshita, (J. Biol. Chem: 240, 877, (1965)).
Fifty lenses are obtained from mature, New Zealand, rabbits and are immediately frozen on dry ice. Aldose reductase is isolated by homogenizing the lens in 3 volumes of water for 30 seconds in a Waring blender followed by centrifugation at 10,000 xg for 15 minutes to remove insoluble material. Saturated ammonium sulfate is added to the supernatant fluid to 40% saturation. The suspension is centrifuged after 15 minutes, and the supernatant liquid recovered. Additional protein is removed by increasing the ammonium sulfate concentration to 50%, and centrifuging the mixture. Aldose reductase is precipitated from the 50% saturated solution by the addition of powdered ammonium sulfate to 75% saturation and is recovered by centrifugation. The precipitated enzyme is assayed by following the ultraviolet absorbance at 340 millimicrons after dissolving the enzyme in 0.05 M sodium chloride. The enzyme (0.50 ml) is added to a quartz cuvette containing phosphate buffer (0.067 M, pH 6.0), NADPH (2×10^-5 M), and water to a final volume of 3 ml and the cuvette inserted in a conventional ultra-violet spectrometer. The reaction is started by the addition of substrate (glyceraldehyde) to the contents of the cuvette and is followed by the determination of loss of absorbance at 340 millimicrons for 2 minutes at 37° C. The reaction rate observed is usually linear for at least 5 minutes.
All results are shown in Tables I, II, and III as % inhibition, i.e. based on a non-inhibited control sample, no inhibition, 0%.

In the next test the test system is lens aldose reductase. The conditions noted are these: in vitro; cited from earlier work.

On Aldose reductase, `CC(C)N(C)S(=O)(=O)c1ccc2oc3ccc(C(=O)O)cc3c(=O)c2c1` yielded an inhibition at 100 µM of 89%, an inhibition at 10 µM of 69% and an inhibition at 1 µM of 17%.

At Aldose reductase, `CC(C)CCOc1cc([S+](C)[O-])cc2c(=O)c3cc(C(=O)O)ccc3oc12` (stereo not drawn) came in with an inhibition at 100 µM of 90%, an inhibition at 10 µM of 65% and an inhibition at 1 µM of 25%.

At Aldose reductase, `CCCCN(C)S(=O)(=O)c1ccc2oc3ccc(C(=O)O)cc3c(=O)c2c1` had an inhibition at 100 µM of 95%, an inhibition at 10 µM of 75% and an inhibition at 1 µM of 25%.

Take `CSc1cc(C(C)C)c2oc3ccc(C(=O)O)cc3c(=O)c2c1`: on Aldose reductase, the inhibition at 100 µM is 97%, at 10 µM the inhibition was 67% and 1 µM produced 17% inhibition.

For `CSc1cc(OC(C)C)c2oc3ccc(C(=O)O)cc3c(=O)c2c1`, at Aldose reductase, the inhibition at 100 µM turned out to be 85%, the inhibition at 10 µM was determined as 67% and the inhibition at 1 µM came out at 17%.

At Aldose reductase, `CSc1cc(OC(C)C)cc2c(=O)c3cc(C(=O)O)ccc3oc12` gave an inhibition at 100 µM of 85%, an inhibition at 10 µM of 60% and an inhibition at 1 µM of 30%.

On to `CC(C)Oc1ccc2oc3ccc(C(=O)O)cc3c(=O)c2c1`, for which, at Aldose reductase, the inhibition at 100 µM turned out to be 89%, the inhibition at 10 µM worked out at 73% and testing at 1 µM gave an inhibition of 3%.

At Aldose reductase, `O=C(O)c1ccc2oc3ccc(OCC(O)CO)cc3c(=O)c2c1` (stereo not drawn) displayed an inhibition at 10 µM of 81% and an inhibition at 1 µM of 54%.

As for `O=C(O)c1ccc2oc3ccc(S(=O)(=O)N(CCO)CCO)cc3c(=O)c2c1` [(HOCH2 CH2)2 N 2 H], at Aldose reductase, the inhibition at 10 µM stood at 67%.

On Aldose reductase, `CCCCCOc1cc([S+](C)[O-])cc2c(=O)c3cc(C(=O)O)ccc3oc12` (stereo not drawn) [CH3 1 n-C5 H11 O] yielded an inhibition at 100 µM of 95%, an inhibition at 10 µM of 70% and an inhibition at 1 µM of 35%.

Take `CCCCCCCCOc1cc([S+](C)[O-])cc2c(=O)c3cc(C(=O)O)ccc3oc12` (stereo not drawn) [CH3 1 n-C8 H11 O]: at Aldose reductase, the inhibition at 100 µM turned out to be 96%, the inhibition at 10 µM turned out to be 83% and 1 µM produced 42% inhibition.

Take `C[S+]([O-])c1cc(S(C)(=O)=O)cc2c(=O)c3cc(C(=O)O)ccc3oc12` (stereo not drawn) [CH3 2 CH3 SO]: at 10 µM the inhibition against Aldose reductase was 50%.

In the case of `CCC(=O)c1ccc2oc3ccc(C(=O)O)cc3c(=O)c2c1` [CH3 CH2 H], at Aldose reductase, the inhibition at 10 µM is 54% and the inhibition at 1 µM turned out to be 50%. Also, at Aldose reductase (molar concentration printed (Table II)), the “% Inhibition” value worked out at 63%.

As for `COc1cc(OC)c2oc3ccc(C(=O)O)cc3c(=O)c2c1` [CH3 O CH3 O], on Aldose reductase, the inhibition at 10 µM came to 39% and the inhibition at 1 µM turned out to be 25%.

At Aldose reductase, `COc1ccc2oc3ccc(C(=O)O)cc3c(=O)c2c1` [CH3 O H] yielded an inhibition at 100 µM of 81%, an inhibition at 10 µM of 39% and an inhibition at 1 µM of 17%.

On Aldose reductase, `O=C(O)c1ccc2oc3ccc(S(=O)(=O)O)cc3c(=O)c2c1` [H 3 H] gave an inhibition at 100 µM of 70% and an inhibition at 10 µM of 43%.

At Aldose reductase, `COc1cccc2c(=O)c3cc(C(=O)O)ccc3oc12` [H CH3 O] came in with an inhibition at 100 µM of 78%, an inhibition at 10 µM of 50% and an inhibition at 1 µM of 28%.

Take `O=C(O)c1ccc2oc3ccc(S(=O)(=O)CCO)cc3c(=O)c2c1` [HO(CH2)2 2 H, 7-(2-hydroxyethylsulfonyl)xanthone-2-carboxylic acid]: the inhibition at 10 µM at Aldose reductase worked out at 83%.

As for `CC1OC(Oc2c(-c3cc(O)c(O)c(O)c3)oc3cc(O)cc(O)c3c2=O)C(O)C(O)C1O` (stereo not drawn) [myrecetrin], the “inhibition of lens aldose reductase (potency in words)” value (“inhibition of lens aldose reductase” below) with lens aldose reductase is reported as “among the most potent”.

As for `O=c1c(O)c(-c2ccc(O)c(O)c2)oc2cc(O)cc(O)c12` [quercetin], the “inhibition of lens aldose reductase” value with lens aldose reductase was “among the most potent”.

Take `CC1OC(Oc2c(-c3ccc(O)c(O)c3)oc3cc(O)cc(O)c3c2=O)C(O)C(O)C1O` (stereo not drawn) [quercetrin]: the “inhibition of lens aldose reductase” value with lens aldose reductase is “among the most potent”.
